Laboratory results as given in the NIST ThermoML archive (doi:10.1021/acs.jced.5b00552).

Assay: xn = mol fraction of the nth substance listed
Details: 100 kPa, Liquid, Vibrating tube method

Cc1ncc(CO)c(CO)c1O.Cl [5-hydroxy-6-methyl-3,4-pyridinedimethanol hydrochloride] + O
Details	mass density [kg/m3]
293.15 K, x1 = 0.01626	1093.5
298.15 K, x1 = 0.01886	1104.7
303.15 K, x1 = 0.02222	1111
308.15 K, x1 = 0.02522	1120.8
313.15 K, x1 = 0.02666	1133.3
318.15 K, x1 = 0.02818	1141.5
323.15 K, x1 = 0.0329	1154.6
